Source: patent publication US9107909B2, “Materials and methods to enhance hematopoietic stem cells engraftment procedures” (priority 2008, dated 2015)
Entries after “also recorded” stand apart in the source; their conditions may differ. Where a name gives a salt, the structure may show the parent alone.

Assays:
SKL cells = experiment: HSPC homing to bone marrow in vivo; parameters: species or system mouse; conditions: 10 microMolar AMD3100, cells incubated before homing assay; dihydrate
Protocol: CD45.2 WBM was labeled with CFSE (Molecular Probes, Eugene, Oreg.) washed and treated on ice with either 1 microMolar dmPGE2 or vehicle. After treatment, cells were washed and 2×10^7 cells transplanted into lethally irradiated CD45.2 mice. After 16 hours, femurs and tibias were flushed, and a proportion of mouse marrow Lin^+ cells depleted using MACS microbeads (Miltenyi Biotech), stained with fluorochrome-conjugated-antibodies specific for biotin (lineage), c-kit (K), and Sca-1 (S) and the total number of CFSE^+ WBM (non lineage depleted), KL and SKL cells determined. For congenic homing studies, Lin^neg CD45.1 cells were treated on ice with 1 microMolar dmPGE2, vehicle, or PBS. After incubation, cells were washed and 2×10^6 cells transplanted into CD45.2 mice. After 16 hours, recipient bone marrow was harvested, lineage depleted, stained, and donor CD45.1 SKL cells determined. For competitive, head-to-head homing studies using sorted SKL cells, Lin^neg cells from CD45.2 and CD45.1 mice were FACS sorted, cells treated with either dmPGE2 or vehicle for 2 hours, washed and 3×10^4 CD45.1 (vehicle or dmPGE2 treated) plus 3×10^4 CD45.2 (dmPGE2 or vehicle treated) SKL cells transplanted into lethally irradiated F1 Hybrid mice. To evaluate the role of CXCR4 in homing studies, Lin^neg CD45.2 cells were treated on ice with vehicle or 1 microMolar dmPGE2 plus 10 microMolar AMD3100 (AnorMed Inc., Vancouver, BC, Canada) and 2×10^6 treated cells injected into lethally irradiated CD45.1 mice. Homed SKL cells were analyzed 16 hours post-transplant.
Irrespective of its cause a marrow niche is required for HSPC to self-renew and differentiate and it is very likely that only HSPC homing to these niches can provide long-term repopulation. Referring now to FIG. 3A, in order to assess HSPC homing, CFSE labeled whole bone marrow (WBM) CD45.2 cells were pulsed with dmPGE2 or vehicle for 2 hours on ice, washed and injected IV in lethally irradiated CD45.2 hosts. After 16 hours, total CFSE^+ cells homing to bone marrow as well as the number of homed events within the KL and SKL cell populations were quantified.
Highly purified SKL cells from both CD45.2 and CD45.1 mice were isolated by FACS sorting, treated with dmPGE2 or vehicle, and 3×10^4 vehicle-treated CD45.1 cells plus 3×10^4 dmPGE2-treated CD45.2 cells transplanted into CD45.1/CD45.2 mice. An additional cohort was concurrently transplanted with congenic strain and treatment groups were switched to test for any bias in strain homing. […] Although SKL cells are not a homogenous HSPC population, they are highly enriched for LTRC (Okada et al., 1992; Spangrude and Scollay, 1990).
To evaluate the role of CXCR4 in homing, Lineage^neg CD45.2 cells were treated with vehicle or 1 microMolardmPGE2 plus 10 microMolar AMD3100, 2×10^6 treated cells injected into lethally-irradiated CD45.1 mice and homed SKL cells recovered 16 hours post-transplant and analyzed by FACS. Referring now to FIG. 11, homing efficiency of vehicle and dmPGE2 treated cells to bone marrow in the absence and presence of 10 microMolar AMD3100. Cells were incubated with AMD3100 for 30 minutes prior to the homing assay.

CFU-GM = CFU-GM mobilization to peripheral blood in mice; format: in vivo, mouse; conditions: for CFU-GM / peripheral blood stem cell mobilization with G-CSF: co-administered with G-CSF, 4 days, vs G-CSF alone
Protocol: Since PGE2 increases CXCR4 receptor expression and SDF-1/CXCR4 signalling is important for trafficking and retention of HSPC in the marrow. […] Data are expressed as mean±SEM CFU-GM mobilized per ml of blood for N=3 mice each assayed individually.
Mice were given SC treatments of 150 microgram/kg indomethacin or 150 microgram/kg baicalein (lipoxygenase inhibitor) in gelatin every 48 hours with or without G-CSF for 4 days. CFU-GM mobilization was determined as previously described (Pelus et. al., Experimental Hematology 33 (2005) 295-307). […] Data are expressed as mean±SEM CFU-GM mobilized per ml of blood for N=3 mice each assayed.
Referring now to FIG. 16, mice were given daily, bid SC injections with G-CSF (1 microgram per mouse) or G-CSF+indomethacin (50 microgram per mouse) for 4 days. CFU-GM mobilization was determined as described (Pelus et. al., Experimental Hematology 33 (2005) 295-307).
Mice were given daily, bid SC injections with vehicle or Indomethacin (50 microgram per mouse) for four days. On day 5, mice were given either vehicle or AMD3100 (5 mg/kg). One hour later mice were sacrificed and CFU-GM mobilization was determined as previously described (Pelus et. al., Experimental Hematology 33 (2005) 295-307). […] Data are expressed as mean±SEM, n=5 mice per group, each assayed individually.
Mice were mobilized with G-CSF and CFU-GM in PB was compared to mobilization regimens with G-CSF and the combination of various NSAIDS (Aspirin [COX-1 and COX-2]; Licofelone [COX-2 and 5-LOX]; SC-560 [COX-1]; Valeryl Salicylate [COX-1]; Valdecoxib [COX-2]; NS-398 [COX-2]). […] In order to test the efficacy of two commonly used COX inhibitors, mice were mobilized with G-CSF or the combination of G-CSF and aspirin or ibuprofen (PO., bid, 4 days). CFU-GM was determined as previously described. Referring now to FIG. 28, dose-response analysis of G-CSF+Aspirin and G-CSF+Ibuprofen mobilization of CFU-GM to peripheral blood are present in bar graph form for a control group of mice treated with only G-CSF; for mice treated with G-CSF plus 10, 20 or 40 milligram/kg of aspirin; and for mice treated with G-CSF plus 10, 20 or 40 milligram/kg of ibuprofen. Data are expressed as mean±SEM, n=4 mice per group, each assayed individually.

mobilized PBMC = experiment: Competitive transplantation of mobilized PBMC; format: in vivo, mouse; conditions: co-administered with G-CSF without stagger, 12 weeks post transplant, vs G-CSF alone
From the text: Data are expressed as mean±SEM, n=5 mice per group, each assayed individually.

SMILES | effect of CXCR4 antagonist on SKL cell homing and on PGE2-enhanced homing (SKL cells) | baseline CFU-GM mobilization (CFU-GM; 150 μg/kg SC, alone) | CFU-GM / peripheral blood stem cell mobilization with G-CSF (CFU-GM) | increase in the number of mobilized progenitor cells (CFU-GM) (CFU-GM; 150 μg/kg SC once daily for 4 days, alone) [fold] | HSPC (CFU-GM) mobilization in combination with AMD3100 (CFU-GM; 50 microgram per mouse bid SC 4 days, AMD3100 5 mg/kg day 5) | CFU-GM / peripheral blood stem cell mobilization with G-CSF (CFU-GM; listed as Indomethacin) | engraftment (competitive repopulating units) of mobilized PBMC (mobilized PBMC)
c1cc(CN2CCCNCCNCCCNCC2)ccc1CN1CCCNCCNCCCNCC1 [AMD3100, 1,1′-[1,4-Phenylenebis(methylene)]bis[1,4,8,11-tetraazacyclotetradecane]octohydrobromide dihydrate] | reduced SKL cell homing and abrogated the improved homing efficiency; also recorded: significantly reduced |  |  |  |  |  | 
O=c1cc(-c2ccccc2)oc2cc(O)c(O)c(O)c12 [baicalein] |  | no effect | no effect |  |  |  | 
COc1ccc2c(c1)c(CC(=O)O)c(C)n2C(=O)c1ccc(Cl)cc1 [indomethacin, 2-{1-[(4-chlorophenyl)carbonyl]-5-methoxy-2-methyl-1H-indol-3-yl}acetic acid] |  |  | highly synergistic increase; also recorded: larger fold increase | 4 | Mobilizes HSPC | synergistically mobilize; also recorded: synergistic effect | no improvement in engraftment
